Numbers after ± are expanded uncertainties.

A short description of data set [1]: Molar enthalpy of transition or fusion. As to conditions: Crystal; DSC.
The conditions of data set [2]: Crystal; DTA.

On to `Cc1nc(C)c(C)nc1C` [tetramethylpyrazine], for which the “Molar enthalpy of transition or fusion” value in data set [1] is 16.4 ± 1.7 kJ/mol. Also, the Normal melting temperature in data set [2] is 85.40 ± 1.1 °C.
